Source: patent US20250189532A1, “1,6-DIYNE COMPOUND, ITS PREPARATION METHOD, AND PRODUCTS OBTAINED USING 1,6-DIYNE COMPOUND AS RAW MATERIAL AND THEIR APPLICATIONS” (Fujian Institute of Research on the Structure of Matter, …, priority 2022, published 2025)

What was measured:
Format in all cases: cell-based
respiratory chain [1] = test: Cell silencing experiment 2: cytc-436 siRNA, live cell imaging with MP-1
Experimental: The cells are cultured in the imaging culture dish for 6 h, and then treated with cytc-436 (designed silent siRNA) or non-targeting RNA for a certain period of time, and then live cell imaging is performed under a confocal laser scanning microscope. After 6 hours of ctyc-436 treatment, Hoechst 33342 and MTG staining are good, but about 5% of the cells could not be labeled by MP-1. In contrast, the staining effect of MP-1 in the control group using non-targeting RNA is still good.

respiratory chain [2] = test: Cell silencing experiment 1: cytc-290 siRNA, live cell imaging with MP-1
Experimental: Cells are cultured in imaging culture dishes for 6 h and then treated with cytc-290 (designed silent siRNA) or nontargeting RNA. After a certain period of action, live cell imaging is performed under a confocal laser scanning microscope. After 12 hours of ctyc-290 treatment, Hoechst 33342 and MTG staining are good, but about 10% of the cells could not be labeled by MP-1. About 30% of the cells could not be labeled by MP-1 after 18 hours of treatment with ctyc-290. As shown in FIGS. 8A-8E, in contrast, the staining effect of MP-1 in the control group using non-targeted RNA is still good.

[3] = test system: L929 cells (mouse fibroblasts); test: Fluorescent labeling of L292/L929 cells by IM probes (confocal imaging); details: 30 minutes in the dark
Experimental: Cell line: L929 cells (mouse fibroblasts).
Cell culture: Cells are cultured in a CO2 incubator (37° C., 5% CO2) with DMEM medium (penicillin (100 U/mL) and streptomycin (100 μg/mL)).
(§1) Cell imaging experiment: Cells are cultured on 15 mm grade bottom cell culture dishes. Before labeling the cells with the probe, the culture medium is removed, and the cells are washed twice with Hank's buffer solution to remove the remaining culture medium. Then, 200 μL of probe IM-1 (10 μM) is added to the culture dish, and the cells are incubated in the dark for 30 minutes. The cells are washed twice with Hank's buffer solution to remove any remaining probe, and then 1 mL of Hank's solution is added to the culture dish. The cells are observed under a laser confocal microscope with a 100× objective. The excitation wavelength is 543 nm, and the emission wavelength is 550-600 nm.
as §1, with “IM-2 (5” for “IM-1 (10”
Cell imaging experiment: Cells are cultured on 15 mm grade bottom cell culture dishes. Before labeling the cells with the probe, the culture medium is removed, and the cells are washed twice with Hank's buffer solution to remove the remaining culture medium. Then, 200 μL of probe IM-3 (2 μM) is added to the culture dish, and the cells are incubated in the dark for 30 minutes. The cells are washed twice with Hank's buffer solution to remove any remaining probe, and then 1 mL of Hank's solution is added to the culture dish. […]

[4] = after 6 hours of cytc-436 treatment
[5] = after 12 hours of cytc-290 treatment

CCOc1ccc(-c2nc3ccc(-c4nc5ccc(N6CCN(C)CC6)cc5[nH]4)cc3[nH]2)cc1 [Hoechst 33342, reference compound]
staining (respiratory chain [1]; [4]): good | staining (respiratory chain [2]; [5]): good

c1ccc(C2=NCc3cc4ccccc4cc32)cc1 [IM-1]
organelles fluorescently labelled by the probe ([3]; probe 10 μM, excitation 543 nm, emission 550-600 nm): labels the lysosomes and lysosomal autolysosomes in the cells

CCCCCCCCCCCCCOc1ccc(C2=NCc3c2cc2ccc(Cl)cc2c3-c2ccccc2)cc1 [IM-2]
organelles fluorescently labelled by the probe ([3]; probe 5 μM, excitation 543 nm, emission 550-600 nm): labels the lysosomes and lysosomal autolysosomes in the cells

CCCCCCCCCCCCCOc1ccc(C2=NCc3c2cc2ccc(Cl)cc2c3-c2ccccc2)cc1 [IM-3]
organelles fluorescently labelled by the probe ([3]; probe 2 μM, excitation 488 nm, emission 600-650 nm): labels the lysosomes and lysosomal autolysosomes in the cells

C#CCN(C(C#Cc1ccccc1)c1ccccc1)S(=O)(=O)c1ccccc1 (stereo not shown) [PA-1]
cells that could not be labeled by MP-1 (respiratory chain [1]; [4]): about 5% | staining effect in control group (respiratory chain [1]; control group using non-targeting RNA): still good | cells that could not be labeled by MP-1 (respiratory chain [2]; [5]): about 10% | cells that could not be labeled by MP-1 (respiratory chain [2]; after 18 hours of cytc-290 treatment): About 30% | staining effect in control group (respiratory chain [2]; control group using non-targeted RNA): still good
